Source: US11739083B2, “Disposable sensor chip with reagent including 2-substituted benzothiazolyl-3-substituted phenyl-5-substituted sulfonated phenyl-2H-tetrazolium salt” (TERUMO KABUSHIKI KAISHA, priority 2016, dated 2023)

Columns and labels:
[1] = Maximum absorption wavelength (λmax) of formazan-nickel chelate by spectrophotometer; format: physicochemical; conditions: chelate of formazan and nickel ion, aqueous MOPS, cell length 10 mm, n=1
Method: 10 mM aqueous solution of MOPS was added to each of the formazan compounds so as to obtain a final concentration of […], and thereby 100 μL of a sample was produced. At this time, all of the samples were red-brown in color. Apart from this, a 1 M aqueous solution of nickel ion was produced.
For mixed solutions of various compounds in an aqueous solution of formazan and an aqueous solution of nickel, the spectra were measured with a spectrophotometer (measurement cell length: 10 mm) (n=1). Based on each of the spectra, the maximum absorption wavelength (λmax) (nm) of each of the compounds in formazan was determined. From FIG. 1, it is understood that the maximum absorption wavelength (λmax) of the chelate compound of formazan compound 1 and nickel ion is 630 nm.
The absorbance at the maximum absorption wavelength is denoted as 100%.

[2] = Evaluation Example 3: estimation of molar extinction coefficient; format: physicochemical; conditions: colored chelate compound of formazan and Ni2+ at λmax=635 nm; FIG. 18
Method: A measurement solution was produced in the same manner as described in the section for the evaluation of the chelation rate and the maximum absorption wavelength (λmax), using the tetrazolium compound 1 of Example 1.
Estimation of the molar extinction coefficient was carried out using the blood glucose meter sensor of FIG. 13. At this time, it is assumed that tetrazolium compound 1 reacts with glucose at a ratio of 1:1 (molar ratio). The concentration (mol/L) of β-glucose include in the spotted aqueous glucose solution was designated as x, and the value obtained by calculating the absorbance at 630 nm of the blood glucose meter sensor having aqueous glucose solution spotted thereon, to a value per 1 cm, was designated as y. The gradient of a straight line obtained at that time is designated as the molar extinction coefficient (calculated based on a glucose molecular weight 180.16, and a β-glucose ratio in the solution of 62%).
FIG. 18 presents a graph obtained when the concentration (mol/L) of β-glucose was used as x value, and the absorbance at λmax=635 nm of colored chelate compound of formazan and Ni^2+, which was calculated into a value per 1 cm (abs/cm), was used as y value. From the graph, the molar extinction coefficient at λmax=635 nm of a colored chelate compound of formazan and Ni^2+ is ε=22,594 L/mol·cm.

Maximum absorption wavelength (λmax) [1]: 630 nm
molar extinction coefficient ε [2]: 22,594 L/mol·cm
SMILES: COc1ccc2nc(-n3nc(-c4ccc(S(=O)(=O)O)cc4S(=O)(=O)[O-])n[n+]3-c3ccc(OC)c(S(=O)(=O)O)c3)sc2c1 [Example 1]
